From patent EP3150203B1, “COMPOUNDS WITH (1E,6E)-1,7-BIS-(3,4- DIMETHOXYPHENYL)-4,4-DISSTITUTED-HEPA-1,6-DIENE-3,5-DI-ONE STRUCTURAL SCAFFOLD,THEIR BIOLOGICAL ACTIVITY, AND USES THEREOF” (Allianz Pharmascience Ltd, priority 2012, dated 2013) come the findings set out here.

Data set [1] has as its system CWR22Rv1 cells (human prostate cancer). Briefly: MTT cell growth assay, CWR22Rv1 cells. The data set is classed as cell-based. Conditions: Homo sapiens, 120 h, 5 days, read-out: Inhibition of Tumor cells growth IC50. How it is done:
The MTT cell proliferation assay was applied in the present invention to detect the capability of compounds to suppress or inhibit prostate cancer cells growth. […] Briefly, 1 x 10^3 LNCaP or CWR22Rv1 cells suspended in complete medium were plated into each well of a 96-well Microtest III tissue culture plate (Falcon, NJ). Two days later, the medium was replaced with RPMI-1640 medium containing 10% charcoal/dextran-deprived FBS (hormone-deprived fetal bovine serum). Testing compounds were added to the medium at indicated concentrations with or without 1 nM DHT and cells were cultured for 5 days in an incubator (at 37 °C). MTT substrate solution (5 mg/ml in PBS) in 1/10 of volume was added to the cells in each well at 2 hours before harvesting. After 2 hour incubation, the plates were centrifuged (10 min at 1,000 rpm) and the supernatant from each well was carefully removed. A 100 µl of lysis buffer (50% dimethyl formamide, 5% sodium dodecyl sulphate, 0.35 M acetic acid, and 50 mM HCl) was added to each well to lyse the cells and dissolved tetrazolium in each well. The relative quantity of enzyme activity from each well was measured based on absorbance read at a wavelength of 450 nm using a Bio-RAD BenchMark microplate reader. Data derived from the MTT assay were also verified by the actual cell count and cell morphology on a separate plate set up in parallel.
For inhibition of tumor cell growth, in vitro, cells were growth in the presence of testing compounds for 5 days, and the cell growth was assayed by standard MTT assay. […] Table 2: Biological activity of Compounds and Derivatives having (1E, 6E)-1,7-bis-(3,4-dimethoxyphenyl)-4,4-disubstituted-hepta-1,6-diene-3,5-dione OR (1E, 10E)-1,11-bis(substituted phenyl)- 6,6-disubstituted undeca-1,3,8,10-tetraene-5,7-dione structural scaffold
For orientation: Formazan colour is commonly taken as a measure of viable cells.

The target in data set [2] is T1, AR protein (Homo sapiens, UniProt P10275, T878A).
T1 sequence (P10275 1-920 T878A): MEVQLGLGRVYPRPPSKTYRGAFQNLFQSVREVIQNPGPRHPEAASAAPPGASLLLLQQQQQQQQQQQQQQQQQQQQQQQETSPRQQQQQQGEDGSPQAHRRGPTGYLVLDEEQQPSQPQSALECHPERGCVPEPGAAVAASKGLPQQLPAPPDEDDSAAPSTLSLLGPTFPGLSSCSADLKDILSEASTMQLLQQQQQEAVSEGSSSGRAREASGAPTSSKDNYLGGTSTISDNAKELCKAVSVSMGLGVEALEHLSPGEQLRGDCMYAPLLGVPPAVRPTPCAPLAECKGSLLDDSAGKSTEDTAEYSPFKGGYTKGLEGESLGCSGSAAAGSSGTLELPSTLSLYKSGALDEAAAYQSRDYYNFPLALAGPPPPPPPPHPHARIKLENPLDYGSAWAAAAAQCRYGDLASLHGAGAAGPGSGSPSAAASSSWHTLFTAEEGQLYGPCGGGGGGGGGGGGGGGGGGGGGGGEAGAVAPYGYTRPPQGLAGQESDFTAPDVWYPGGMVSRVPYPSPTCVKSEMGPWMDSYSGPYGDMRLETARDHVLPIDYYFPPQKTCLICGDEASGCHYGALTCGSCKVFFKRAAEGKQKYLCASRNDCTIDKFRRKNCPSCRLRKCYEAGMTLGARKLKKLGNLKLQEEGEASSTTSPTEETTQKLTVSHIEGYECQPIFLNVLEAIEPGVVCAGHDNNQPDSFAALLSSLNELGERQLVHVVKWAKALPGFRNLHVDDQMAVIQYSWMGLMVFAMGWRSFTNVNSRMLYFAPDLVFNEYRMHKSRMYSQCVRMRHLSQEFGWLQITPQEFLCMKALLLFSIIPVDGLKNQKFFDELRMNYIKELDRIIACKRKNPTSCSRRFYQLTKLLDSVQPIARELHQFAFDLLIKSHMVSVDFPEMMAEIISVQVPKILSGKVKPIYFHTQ
Briefly: Cycloheximide chasing assay of AR degradation in LNCaP cells. The data set is classed as cell-based. As to conditions: in the presence of cycloheximide (CHX) (FIG. 7). How it is done: AR protein "degradation" in prostate cancer cells was measured by using cycloheximide (a protein synthesis inhibitor) chasing assay method. Briefly, LNCaP cells were incubated with testing ASC compound at the designated concentrations for 24 hours. Subsequently, cycloheximide was added to the cells at a concentration of 15 µg/ml to block new protein synthesis. After incubation, cells were harvested at designated time periods and the resultant change in AR protein levels were analysed using Western Blot analysis as described above.

Data set [3] concerns the target T2, Androgen Receptor (AR) (Homo sapiens, UniProt P10275, T878A).
T2 sequence (P10275 1-920 T878A): T1 sequence (P10275 1-920 T878A)
Briefly: Western Blot analysis of AR protein expression in LNCaP cells. As to conditions: various concentrations, Western Blot (FIG. 6).

The target of data set [4] is T3, Androgen Receptor (AR) (Homo sapiens, UniProt P10275, H875Y, form not given).
T3 sequence (P10275 1-920 H875Y): T1 sequence (P10275 1-920 T878A) with H875Y, A878T
Briefly: Western Blot analysis of AR protein expression in CWR22Rv1 cells. Type of data set: cell-based. Conditions: various concentrations, Western Blot (FIG. 6).

Data set [5] can be described thus: Stability in rat plasma (37°C). The data set is classed as in vitro ADME. An excerpt: (§1) Also, at 24 hr where stability of JM49 was only 4%, while its derivative Compound 6 had improved to 79%. Similar improvements in stability (from 6- 24 hr) were also observed in the conditions of rat plasma (Table 4) and human plasma (Table 5). […] Table 3. Relative compound concentration changes (stability) in acidic condition

Data set [6] is described as follows: Stability in acidic condition (0.1 N HCl, 37°C). Type of data set: physicochemical.
Text: as §1

Data set [7] can be described thus: Stability in human plasma (37°C). The data set is classed as in vitro ADME. As to conditions: result in words (Table 5 not given).
Text: as §1

Positions count from the first letter of the chain named.

The IC50 is the concentration that inhibits the measured activity by half. On to `COc1ccc(C=CC(=O)C=C(O)C=Cc2ccc(OC)c(OC)c2)cc1OC` [ASC-J9®, 1,7-Bis-(3,4-dimethoxy-phenyl)-5-hydroxy-hepta-1,4,6-trien-3-one, reference compound], for which the IC50 in data set [1] was found to be 4 µM. Further, in data set [2], the AR protein degradation result is recorded as “enhances AR protein degradation”.
Turning to `COc1ccc(/C=C/C(=O)C(C(=O)/C=C/c2ccc(OC)c(OC)c2)=C(O)/C=C/c2ccc(OC)c(OC)c2)cc1OC` [ASC-JM4], the “reducing endogenous AR expression” value in data set [3] and in data set [4] was “capable of reducing endogenous AR expression” each time.
Regarding `COc1ccc(/C=C/C(=O)C2CC(c3ccc(OC)c(OC)c3)(C(C(=O)/C=C/c3ccc(OC)c(OC)c3)C(=O)/C=C/c3ccc(OC)c(OC)c3)CC2=O)cc1OC` (stereo not drawn) [ASC-JM5], in data set [2], the AR protein degradation entry was “enhances AR protein degradation”.
For `CCN(CC)C(=O)CC(C(=O)/C=C/c1ccc(OC)c(OC)c1)C(=O)/C=C/c1ccc(OC)c(OC)c1` [JM49], the “Concentration change (%) (stability) in rat plasma” value came to 100% in data set [5] (0 h); 68% in data set [5] (1 h); 54% in data set [5] (2 h); 27% in data set [5] (6 h); 2% in data set [5] (24 h); 0% in data set [5] (48 h). Further, the “reducing endogenous AR expression” value in data set [4] was “capable of reducing endogenous AR expression”. The “Concentration change (%) (stability) in acidic condition” value in data set [6] (0 h) turned out to be 100%; in data set [6] (1 h), 73%; in data set [6] (2 h), 56%; in data set [6] (6 h) it was 38%; in data set [6] (24 h) it was 4%. The “stability in human plasma” value in data set [7] is “chemically unstable”.
